US20230002352A1, “SULFONAMIDE DERIVATIVES AS CTPS1 INHIBITORS” (Step Pharma S.A.S., priority 2019, published 2023)
Read-outs that look alike come from different tables or passages of the source.

What was measured:
human CTPS1 versus CTPS2 = assay: Human CTPS1 versus CTPS2 selectivity assessment by RapidFire/MS analysis; assay type: biochemical
Protocol: Biological Example 2—RapidFire/MS-Based Enzyme Selectivity Assays.
Human CTPS1 Versus CTPS2 Selectivity Assessment by RapidFire/MS Analysis.
The enzyme inhibitory activities against each target isoform of interest may be determined for the compounds of the invention using an optimised RapidFire high-throughput mass spectrometry (RF/MS) assay format. RF/MS assays for both human CTPS1 and CTPS2 may be performed in assay buffer consisting of 50 mM HEPES (Merck), 20 mM MgCl2, 5 mM KCl, 1 mM DTT, 0.01% Tween-20, pH to 8.0 accordingly. Human full-length active C-terminal FLAG-His-tag CTPS1 (UniProtKB-P17812, CTPS[1-591]-[…]) may be obtained from Proteros biostructures GmbH. Human full length active C-terminal FLAG-His-Avi tagged CTPS2 (UniProtKB-Q9NRF8, CTPS2 [1-586]-[…]) may be obtained from Harker Bio.
Human CTPS (1 or 2) protein may be prepared in 1× assay buffer to the final working protein concentration required for the reaction. A 2 uL volume per well of 2×CTPS (1 or 2) protein may be mixed with 40 nL of compound using acoustic (ECHO) delivery and incubated for 10 minutes at 25° C. Each isoform enzymatic reaction may be subsequently initiated by addition of 2 uL per well of a 2× substrate mix in assay buffer. For hCTPS1: ATP (0.3 mM), UTP (0.2 mM), GTP (0.07 mM) and L-glutamine (0.1 mM). For hCTPS2: ATP (0.1 mM), UTP (0.04 mM), GTP (0.03 mM) and L-glutamine (0.1 mM). Each mixture may be incubated for an appropriate amount of time per isoform within the determined linear phase of the reaction at 25° C. A 60 uL volume of stop solution (1% formic acid with 0.5 uM ^13C9-^15N3-CTP in H2O) may be added and the plate immediately heat-sealed and centrifuged for 10 minutes at 4,000 rpm. Following centrifugation, plates may be loaded onto the Agilent RapidFire microfluidic solid phase extraction system coupled to an AP14000 triple quadrupole mass spectrometer (RF/MS) for analysis.
In all cases, the enzyme converts UTP to CTP. Highly specific and sensitive multiple reaction monitoring (MRM) MS methods may be optimised for the detection of the enzymatic reaction product, CTP, and the stable isotope labelled product standard ^13C9-^15N3-CTP. Readout for data analysis may be calculated as the ratio between the peak area of the product CTP and the internal standard ^13C9-^15N3-CTP. For data reporting, the following equation may be used: […]
For each screening plate, the means of the negative (DMSO) and positive control values were used for the calculation of the respective assay window (S/B) and Z′ values. The median of the respective control values was used for calculation of percent inhibition according to the following equation: […]
Percentage inhibition was then plotted against compound concentration, and the 50% inhibitory concentration (IC50) was determined from the resultant concentration-response curve.
Fold selectivity between CTPS1 and CTPS2 was subsequently calculated according to the following equation: […]

human CTPS1 = target: T1, human CTPS1 (Homo sapiens, UniProt P17812); assay: Human CTPS1 enzyme inhibition (ADP-Glo Max assay); assay type: biochemical; details: read-out: CTPS1 (Human CTPS1 Enzyme Inhibition data grouped by potency range, IC50)
T1 construct: purchased Proteros biostructures GmbH
T1 sequence (P17812 1-591): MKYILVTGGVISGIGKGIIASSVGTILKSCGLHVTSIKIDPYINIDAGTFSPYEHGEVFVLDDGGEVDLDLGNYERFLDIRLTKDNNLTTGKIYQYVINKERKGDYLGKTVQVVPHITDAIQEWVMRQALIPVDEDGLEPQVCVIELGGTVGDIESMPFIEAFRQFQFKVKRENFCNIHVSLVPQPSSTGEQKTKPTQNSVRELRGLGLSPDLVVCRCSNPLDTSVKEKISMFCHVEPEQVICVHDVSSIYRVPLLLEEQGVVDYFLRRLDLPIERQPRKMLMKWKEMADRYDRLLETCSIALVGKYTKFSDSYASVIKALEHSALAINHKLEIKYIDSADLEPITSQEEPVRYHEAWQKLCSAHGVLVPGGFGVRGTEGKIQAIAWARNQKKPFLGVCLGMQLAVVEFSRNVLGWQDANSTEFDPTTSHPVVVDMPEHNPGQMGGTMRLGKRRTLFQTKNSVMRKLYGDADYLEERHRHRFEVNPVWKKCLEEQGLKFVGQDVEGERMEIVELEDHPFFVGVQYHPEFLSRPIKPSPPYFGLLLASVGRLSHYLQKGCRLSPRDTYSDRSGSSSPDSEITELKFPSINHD
Method in brief: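 Full-length FLAG-His-tagged human CTPS1 and compound were preincubated 10 min at 25 °C in 50 mM Tris pH 8.0, 10 mM MgCl2, 0.01% Tween-20, 2 mM L-cysteine. Substrate mix: ATP 0.31 mM, GTP 0.034 mM, UTP 0.48 mM, glutamine 0.186 mM; linear-phase reaction at 25 °C. ADP-Glo Max luminescence; IC50 from inhibition curve.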

Compound | Selectivity (fold selectivity between CTPS1 and CTPS2) (human CTPS1 versus CTPS2; Table 26) | IC50 (human CTPS1; Table 23, ADP-Glo Max assay) | further results
CCOc1cncc(-c2ccc(NC(=O)C3(c4ccnc(NS(=O)(=O)C5CC5)n4)CCC(O)CC3)nc2)n1 (single isomer, unassigned) [Example P227, 1-(2-(cyclopropanesulfonamido)pyrimidin-4-yl)-N-(5-(6-ethoxypyrazin-2-yl)pyridin-2-yl)-4-hydroxycyclohexanecarboxamide] |  |  | Selectivity (fold selectivity between CTPS1 and CTPS2) (human CTPS1 versus CTPS2; Table 27): +++ (>60 fold (+++)); IC50 (human CTPS1; Table 24, ADP-Glo Max assay): ≤ 100 nM
CCOc1cncc(-c2ccc(NC(=O)C3(c4cncc(NS(=O)(=O)C5CC5)n4)CCOCC3)nc2)n1 [Example P197] | +++ (>60 fold (+++)) | ≤ 100 nM | 
CCOc1cncc(-c2ccc(NC(=O)C3(c4ccnc(NS(=O)(=O)C5CC5)n4)CCOCC3)c(F)c2)n1 [Example P143] | +++ (>60 fold (+++)) | ≤ 100 nM | 
CCOc1cncc(-c2cnc(NC(=O)C(CC)c3ccnc(NS(=O)(=O)C4CC4)n3)c(C)c2)n1 (stereo not drawn) [Example P155] | + (2-30 fold (+)) | ≤ 100 nM | 
CCOc1cncc(-c2ccc(NC(=O)C3(c4ccnc(NS(=O)(=O)C5CC5)n4)CCC(N(C)C)CC3)nc2)n1 (single isomer, unassigned) [Example P229, 1-(2-(cyclopropanesulfonamido)pyrimidin-4-yl)-4-(dimethylamino)-N-(5-(6-ethoxypyrazin-2-yl)pyridin-2-yl)cyclohexane-1-carboxamide] |  |  | Selectivity (fold selectivity between CTPS1 and CTPS2) (human CTPS1 versus CTPS2; Table 27): +++ (>60 fold (+++)); IC50 (human CTPS1; Table 24, ADP-Glo Max assay): ≤ 100 nM
CCOc1cncc(-c2cnc(NC(=O)C(CC)c3ccnc(NS(=O)(=O)C4CC4)n3)c(F)c2)n1 (stereo not drawn) [Example P162] | ++ (>30-60 fold (++)) | ≤ 100 nM | 
CCOc1cncc(-c2ccc(NC(=O)C(CCOC)c3ccnc(NS(=O)(=O)C4CC4)n3)c(F)c2)n1 (stereo not drawn) [Example P146] | +++ (>60 fold (+++)) | ≤ 100 nM | 
CC(C)(NC(=O)c1ccc(-c2cncc(C(F)(F)F)n2)cc1)c1cncc(NS(=O)(=O)C2CC2)n1 [Example P222] | + (2-30 fold (+)) | 100 to 1000 nM | 
CCOc1cncc(-c2ccc(NC(=O)C(C)(C)c3nc(NS(=O)(=O)C4CC4)ncc3C)cc2)n1 [Example P70] | + (2-30 fold (+)) | 1000 to 10000 nM | 
CCOc1cncc(-c2ccc(NC(=O)C(C)(C)c3ccnc(NS(C)(=O)=O)n3)nc2)n1 [Example P76] | ++ (>30-60 fold (++)) | 100 to 1000 nM | 
CCOc1cncc(-c2ccc(NC(=O)Cc3ccnc(NS(=O)(=O)C4CC4)n3)cc2)n1 [Example P18, 2-(2-(Cyclopropanesulfonamido)pyrimidin-4-yl)-N-(4-(6-ethoxypyrazin-2-yl)phenyl)acetamide] | ++ (>30-60 fold (++)) | ≤ 100 nM | 
CCOc1cncc(-c2ccc(NC(=O)C(C)(C)c3cncc(NS(=O)(=O)C4CC4)n3)nc2)n1 [Example P195] | +++ (>60 fold (+++)) | ≤ 100 nM | 
O=C(Cc1ccnc(NS(=O)(=O)C2CC2)n1)Nc1ccc(-c2cccnc2)cc1 [Example P16] | ++ (>30-60 fold (++)) | 100 to 1000 nM | 
CCOc1cncc(-c2ccc(NC(=O)C3(c4ccnc(NS(=O)(=O)C5CC5)n4)CCOCC3)nc2)n1 [Example P115, 4-(2-(Cyclopropanesulfonamido)pyrimidin-4-yl)-N-(5-(6-ethoxypyrazin-2-yl)pyridin-2-yl)tetrahydro-2H-pyran-4-carboxamide] | +++ (>60 fold (+++)) | ≤ 100 nM | 
CCOc1cncc(-c2ccc(C(=O)NCc3ccnc(NS(=O)(=O)C4CC4)n3)cc2)n1 [Example P118] | +++ (>60 fold (+++)) | ≤ 100 nM | 
CCOc1cncc(-c2ccc(NC(=O)C(C)(C)c3ccnc(NS(=O)(=O)CC)n3)cc2)n1 [Example P74] | ++ (>30-60 fold (++)) | 100 to 1000 nM | 
CCOc1cncc(-c2ccc(NC(=O)C(C)(C)c3ccnc(NS(=O)(=O)C4CC4)n3)c(F)c2)n1 [Example P38] | + (2-30 fold (+)) | ≤ 100 nM | 
CCOc1cncc(-c2ccc(NC(=O)C(C)(C)c3ccnc(NS(=O)(=O)C4CC4)n3)nc2)n1 [Example P31] | +++ (>60 fold (+++)) | ≤ 100 nM | 
CCOc1cncc(-c2ccc(NC(=O)C3(c4ccnc(NS(=O)(=O)C5CC5)n4)CCCC3)nc2)n1 [Example P136] | +++ (>60 fold (+++)) | ≤ 100 nM | 
CCOc1cncc(-c2ccc(NC(=O)C3(c4ccnc(NS(=O)(=O)CC#N)n4)CCOCC3)nc2)n1 [Example P287, 4-(2-((cyanomethyl)sulfonamido)pyrimidin-4-yl)-N-(5-(6-ethoxypyrazin-2-yl)pyridin-2-yl)tetrahydro-2H-pyran-4-carboxamide] |  |  | CTPS1 (Selectivity data) (human CTPS1 versus CTPS2; Table 28, compounds where R1 is substituted by CN): +++ (>60 fold (+++)); IC50 (human CTPS1; Table 25, compounds where R1 is substituted by CN): ≤ 100 nM
CCC(C(=O)Nc1ccc(-c2cncc(OC)n2)cn1)c1ccnc(NS(=O)(=O)C2CC2)n1 (stereo not drawn) [Example P159] | +++ (>60 fold (+++)) | ≤ 100 nM | 
CCOc1cncc(-c2ccc(NC(=O)C3(c4ccnc(NS(=O)(=O)C5CC5)n4)CCC(F)(F)CC3)nc2)n1 [Example P242] |  |  | Selectivity (fold selectivity between CTPS1 and CTPS2) (human CTPS1 versus CTPS2; Table 27): +++ (>60 fold (+++)); IC50 (human CTPS1; Table 24, ADP-Glo Max assay): ≤ 100 nM
CCOc1cncc(-c2ccc(NC(=O)C3(c4ccnc(NS(=O)(=O)C5CC5)n4)CCC(O)CC3)nc2)n1 (single isomer, unassigned) [Example P228, 1-(2-(cyclopropanesulfonamido)pyrimidin-4-yl)-N-(5-(6-ethoxypyrazin-2-yl)pyridin-2-yl)-4-hydroxycyclohexanecarboxamide] |  |  | Selectivity (fold selectivity between CTPS1 and CTPS2) (human CTPS1 versus CTPS2; Table 27): + (2-30 fold (+)); IC50 (human CTPS1; Table 24, ADP-Glo Max assay): 1000 to 10000 nM
CC(C)Oc1cncc(-c2ccc(NC(=O)C(C)(C)c3ccnc(NS(=O)(=O)C4CC4)n3)c(F)c2)n1 [Example P39] | + (2-30 fold (+)) | ≤ 100 nM | 
CC(C)(C(=O)Nc1ccc(-c2cccnc2)cc1)c1ccnc(NS(=O)(=O)C2CC2)n1 [Example P59] | + (2-30 fold (+)) | 1000 to 10000 nM | 
CCOc1cncc(-c2ccc(NC(=O)C(CC)c3ccnc(NS(=O)(=O)C4CC4)n3)c(C)c2)n1 (stereo not drawn) [Example P161] | + (2-30 fold (+)) | ≤ 100 nM | 
CCOc1cncc(-c2ccc(NC(=O)C(OC)c3ccnc(NS(=O)(=O)C4CC4)n3)cc2)n1 (stereo not drawn) [Example P164] | + (2-30 fold (+)) | ≤ 100 nM | 
